According to patent US8993527B2, “Methods, compositions, and formulations for preventing or reducing adverse effects in a patient” (Pericor Therapeutics, Inc., priority 2005, dated 2015):
Read-outs that look alike come from different tables or passages of the source.

Test system: patients undergoing CABG surgery
[1] = plasma level 3.00–4.00 μg/ml, n = 44
[2] = plasma level 4.00–5.00 μg/ml, n = 61

NC(=O)c1ncn([C@@H]2O[C@H](CO)[C@@H](O)[C@H]2O)c1N [1 (1-110), 5-amino-1-β-D-ribofuranosyl-imidazole-4-carboxamide]
Cardiac Death, incidence (Low Dose, n = 214): 5 (2.3%) | Cerebrovascular Accident, incidence (Low Dose, n = 214): 2 (0.9%) | Combined Clinical Outcomes, incidence (Low Dose, n = 214): 23 (10.7%) | Congestive Heart Failure, incidence (Low Dose, n = 214): 6 (2.8%) | Life-Threatening Dysrhythmia, incidence (Low Dose, n = 214): 9 (4.2%) | decrease in incidence of MI (high dose vs placebo): 68% | decrease in incidence of cerebrovascular accident (high dose vs placebo): 88% | reduction in the incidence of combined outcomes (high dose vs placebo): 61% | incidence of myocardial infarction by either ECG or CK-MB (high dose, placebo 24.1%): 20.8% | Myocardial Infarction MI, incidence (plasma level 0.25–2.00 μg/ml, n = 83): 2 (2.4%) | Combined Clinical Outcome, incidence (plasma level 0.25–2.00 μg/ml, n = 89): 9 (10.1%) | Myocardial Infarction MI, incidence (plasma level 2.00–3.00 μg/ml, n = 114): 5 (4.4%) | Combined Clinical Outcome, incidence (plasma level 2.00–3.00 μg/ml, n = 116): 11 (9.5%) | Combined Clinical Outcome, incidence [1]: 3 (6.8%) | Myocardial Infarction MI, incidence [1]: 1 (2.3%) | Combined Clinical Outcome, incidence [2]: 2 (3.3%) | Myocardial Infarction MI, incidence [2]: 0 | Myocardial Infarction MI, incidence (plasma level 5.00–6.00 μg/ml, n = 49): 2 (4.1%) | Combined Clinical Outcome, incidence (plasma level 5.00–6.00 μg/ml, n = 50): 3 (6.0%) | Myocardial Infarction MI, incidence (plasma level <0.25 μg/ml, n = 209): 9 (4.3%) | Combined Clinical Outcome, incidence (plasma level <0.25 μg/ml, n = 211): 29 (13.7%) | Myocardial Infarction MI, incidence (plasma level >6.00 μg/ml, n = 44): 1 (2.3%) | Combined Clinical Outcome, incidence (plasma level >6.00 μg/ml, n = 46): 4 (8.7%)
